“Also recorded” adds a separate entry of the source.
Columns and labels:
Type in all cases: in vivo, rat
[1] = test system: Female Wistar rats; experiment: Basal sensitivity to colorectal distension model; conditions: 30 mg/kg by oral gavage; CRD measured 2 hrs later; 0-60 mmHg
[2] = test system: Male Sprague Dawley (SD) rats; experiment: Cortagine-induced visceral hypersensitivity to colorectal distension; conditions: for antihyperalgesic effects in the cortagine model of visceral pain: summary statement referring to Example 3
Description: Male Sprague Dawley (SD) rats (250-275 g, Harlan Labs, Indianapolis, Ind.) were kept under standard conditions of humidity and temperature and a 12-hour light/dark cycle (lights on 6.00 a.m.). Animals were group housed and had access to food ad libitum. Prior to the start of studies, animals were acclimatized to handling and administration of treatments (oral syringe feeding and subcutaneous injection). At the end of the experiments, animals were sacrificed by CO2 gas inhalation followed by thoracotomy or isoflurane anesthesia followed by decapitation with appropriate approved animal protocols.
On the day of the experiments, rats were injected intraperitoneally (IP) with cortagine (10 μg/kg, 0.8 ml/kg in DMSO/cremophor/isotonic saline (1:1:8 v:v:v). Cortagine, a selective corticotropin releasing factor receptor 1 (CRF1) agonist, prepared as described previously (Rivier et al. J. Med. Chem. 2007: 50:1668-1674), was stored in a powder form at −80° C. and prepared in sterile water (12.5 μg/ml) immediately before use. This dose had previously been established to show a significant increase in defecation, induction of diarrhea and increase in colonic motility, permeability and visceral pain in rats. (Larauche et al. Am. J. Physiol. Gastrointest. Liver Physiol. 2009: 297:G215-G227)
FAAH inhibitor compounds URB597 [3′-(aminocarbonyl)biphenyl-3-yl cyclohexyl carbamate], compound A and compound B were formulated as suspensions in DMSO/cremophor/isotonic saline (1:1:8 v:v:v). The concentration of the respective dosing FAAH inhibitor compound suspensions were 6 mg/ml for 30 mg/kg dose of compound A or compound B; 2 mg/ml for the 10 mg/kg dose of compound B; and 1.5 mg/ml for the 3 mg/kg dose of URB597. Compound A, compound B or vehicle treatment was administered to rats by per os (PO) route at dose-volume of 5 ml/kg. URB597 treatment was administered to rats by subcutaneous (SC) route at dose volume of 2 ml/kg. The vehicle for the PO route was DMSO/cremophor/isotonic saline (1:1:8 v:v:v). Vehicle (PO), URB597 (SC), compound A and compound B (PO) were administered to non-fasted rats, restrained by hand. The regimen of administration of URB597, compound A and compound B involved one delivery (PO or SC) performed 120 min before IP injection of cortagine.
Visceral pain was assessed using a non-invasive pressure transducer system referred to as “sensor balloon” as previously described (Larauche et al. Am. J. Physiol. Gastrointest. Liver Physiol. 2009: 297:G215-G227; Ness et al. Brain Res. 1988: 450:153-169). Briefly, in adult non-fasted SD rats, a 4-5 cm “sensor balloon” lubricated with surgical lubricant (Surgilube, Fougera, Melville) was inserted intra-anally under brief isoflurane anesthesia. The “sensor balloon” was positioned such that its distal end was 1 cm proximal to the anal verge and secured in place by tapping the balloon catheter to the tail. Rats were placed individually in Boolman's cage and allowed to recover from anesthesia and habituation. The colorectal procedure was performed using the Distender Series Ilir dual barostat (G&J Electronics Inc, Toronto, Ontario). The CRD protocol consisted of 2 CRD at 60 mmHg to unfold the balloon followed by 2 sets of CRD at 10, 20, 40 and 60 mmHg, 20 s duration, 4-min inter-stimulus interval. The intra-luminal colonic pressure (ICP) was recorded for 20 s before, during and after termination of CRD. […]

[3] = test system: Female Wistar rats; experiment: Partial restraint stress-induced hyperalgesia model; conditions: 30 mg/kg orally, 1 hr 15 min into 2 hr PRS; CRD 2 hrs later; 45 and 60 mmHg
Procedure: Female Wistar rats surgically prepared for electromyography as described in Example 1 were used to evaluate the effects of the FAAH inhibitors (a) compound A or (b) compound B, on colorectal sensitivity and compliance after a 2 hour partial restraint stress session.
Partial restraint stress (PRS), a relatively mild stress, was induced as previously described (Morteau et al. Dig. Dis. Sci. 1994: 39:1239-48; “Guanylate cyclase C-mediated antinociceptive effects of linaclotide in rodent models of visceral pain”, Eutamene H, Bradesi S, Larauche M, Theodorou V, Beaufrand C, Ohning G, Fioramonti J, Cohen M, Bryant A P, Kurtz C, Currie M G, Mayer E A, Bueno L, Neurogastroenterology and motility —2010 Volume: 22 p. 312-322; “Stress-induced changes in intestinal transit in the rat: a model for irritable bowel syndrome”, Williams C L, Villar R G, Peterson J M, Burks T F, Gastroenterology—1988 p. 611-21). Female rats were lightly anesthetized with diethyl ether and their shoulders, upper forelimbs and thoracic trunk were wrapped in a confining harness of paper tape to restrict, but not prevent body movements. Control sham-stress animals were anesthetized but not wrapped. […]
Rats were treated orally with compound A (30 mg/kg in DMSO/cremophor/isotonic saline (1:1:8 v:v:v), n=8), or vehicle only (DMSO/cremophor/isotonic saline (1:1:8 v:v:v), 1 mL, n=9) with or without 2 hour PRS sessions. The number of abdominal contractions was recorded by electromyography per 5-minute period (y axis) for each distension pressure of 0 mmHg, 15 mmHg, 30 mmHg, 45 mmHg and 60 mmHg (x axis); the ? symbols represent the results for the control+vehicle group (n=9); the symbols ? represent the results for the stress+vehicle group (n=9); the symbols ? represent the results for the stress+compound A group (n=8). Data are mean values with SEM.
Rats were treated orally with compound B (30 mg/kg in DMSO/cremophor/isotonic saline (1:1:8 v:v:v), n=9), or vehicle only (DMSO/cremophor/isotonic saline (1:1:8 v:v:v), 1 mL, n=9) with or without 2 hour PRS sessions. The number of abdominal contractions was recorded by electromyography per 5-minute period (y axis) for each distension pressure of 0 mmHg, 15 mmHg, 30 mmHg, 45 mmHg and 60 mmHg (x axis); the symbols ? represent the results for the control+vehicle group (n=9); the symbols ? represent the results for the stress+vehicle group (n=9); and the symbols ? represent the results for the stress+compound B group (n=9). Data are mean values with SEM.
The effect of FAAH inhibitor URB597 was tested at 3 mg/kg and 10 mg/kg in the PRS model of visceral hyperalgesia essentially as described in Examples 1 and 2. URB597 was formulated as a suspension in vehicle [DMSO/cremophor/isotonic saline (1:1:8 v:v:v)]. […]

[4] = 10 mg/kg PO 2 h before cortagine, normalized to baseline VMR at 60 mmHg
[5] = 30 mg/kg PO 2 h before cortagine
[6] = 30 mg/kg PO 2 h before cortagine 10 μg/kg IP, 40 and 60 mmHg, did not reach statistical significance
[7] = 30 mg/kg PO 2 h before cortagine, n=11

SMILES	basal sensitivity to colorectal distension (number of abdominal contractions per 5-minute period) [1]	% hypersensitive rats at 40 mmHg ([2]; 10 mg/kg PO 2 h before cortagine)	effect on cortagine-induced visceral hypersensitivity to CRD ([2]; 10 mg/kg PO 2 h before cortagine 10 μg/kg IP)	rats presenting a decrease in VMR compared to baseline at 60 mmHg ([2]; 10 mg/kg PO 2 h before cortagine, n=11)	rats presenting an increased VMR over baseline (% hypersensitive rats) at 60 mmHg ([2]; 10 mg/kg PO 2 h before cortagine, n=11, all increases between 0 and 50%)	VMR to CRD at 40 mmHg [2, 4]	VMR to CRD at 60 mmHg [2, 4]	rats with increased VMR between 0 and 50% at 60 mmHg [2, 5]	rats with increased VMR over 101% at 60 mmHg [2, 5]	effect on cortagine-induced visceral hypersensitivity to CRD [2, 6]	rats presenting an increased VMR over baseline (% hypersensitive rats) at 60 mmHg [2, 7]	antihyperalgesic effects in the cortagine model of visceral pain [2]	abdominal contractions versus stress+vehicle control [3]	rats with increased VMR between 51 and 100% at 60 mmHg [2, 5]
COc1cc(NC(=O)C(=O)c2c(C)n(Cc3ccc(Cl)cc3)c3ccc(C)cc23)ccn1 [compound B, 2-(1-(4-chlorobenzyl)-2,5-dimethyl-1H-indol-3-yl)-N-(2-methoxypyridin-4-yl)-2-oxoacetamide]	neither compound A nor compound B alters basal sensitivity	36%	abolished the visceral hypersensitivity; also recorded: prevented the visceral hypersensitivity	64%	36%	84.74±13.54%	87.75±10.96%	45%	9%	trend to dampen the development of the visceral hypersensitivity; also recorded: trend to reduce cortagine-induced visceral hypersensitivity	55%	exhibit antihyperalgesic effects	significantly reduced abdominal contractions; also recorded: exhibit antihyperalgesic effects	
COc1ccc2c(c1)c(C(=O)C(=O)Nc1cccc(Cl)c1)c(C)n2Cc1ccc(Cl)cc1 [compound A, 2-(1-(4-chlorobenzyl)-5-methoxy-2-methyl-1H-indol-3-yl)-N-(3-chlorophenyl)-2-oxoacetamide]	neither compound A nor compound B alters basal sensitivity							18%	9%	trend to decrease the cortagine-induced visceral hypersensitivity; also recorded: trend to reduce cortagine-induced visceral hypersensitivity	55%	exhibit antihyperalgesic effects	non-significant trend towards attenuation of abdominal contractions; also recorded: exhibit antihyperalgesic effects	27%

Source: US20130224151A1, “Use of FAAH Inhibitors for Treating Abdominal, Visceral and Pelvic Pain” (UNITED STATES OF AMERICA, priority 2010, published 2013)
